Compared with `CC(=O)Nc1ccc([N+](=O)[O-])c(C)c1C(=O)O`, `CCOC(=O)C1=C(Cl)N=C(C)N(C(=O)OC)C1c1cccc([N+](=O)[O-])c1` (centres undefined) is lower in melting point: 190 to 191 °C for the first, 113 to 114 °C for the second.

Compared with `CC1(CN=[N+]=[N-])COC(Cn2ccnc2)(c2ccc(Cl)cc2Cl)OC1` (centres undefined), `CC1(C)C=C(c2ccccn2)c2cc(Cl)cc(Cl)c2OC1` is lower in melting point: 132 to 133 °C for the first, 124 °C for the second.

First: COc1ccc2c(c1)C(=O)c1c-2cnc2ccccc12
Second: CC(C=O)c1ccc2cc(OCc3ccc4ccccc4n3)ccc2c1 (centres undefined)
The melting point of the first is higher: 195 to 196 °C for the first, 113 to 115 °C for the second.

First: Cc1ccccc1COCCCC(=O)O
Second: O=C1NC(=O)C(CCOc2ccccc2)S1 (centres undefined)
The melting point of the first is lower: 79 to 80 °C for the first, 81 to 83 °C for the second.

First: CCOCCNC(=O)c1cc(C(=O)OC)c(O)c2ncc(Cc3ccc(F)cc3)cc12
Second: COc1cc(Nc2nccc(-c3ccc(NCCCO)cc3)n2)cc(OC)c1OC
The melting point of the first is higher: 174 to 175 °C for the first, 86 to 90 °C for the second.

Compared with `O=C(C=CCC(Nc1cc(Cl)cc(Cl)c1I)C(=O)OCc1ccccc1)Nc1ccccc1` (centres undefined), `O=C(O)c1cc(OCc2ccccc2)c(Cc2ccccc2)c(S(=O)(=O)Cl)c1` is higher in melting point: 146 to 148 °C for the first, 164 to 166 °C for the second.

First: OC(Cc1ccc(Cl)cc1)Cn1cncn1 (centres undefined)
Second: Cc1oc(-c2ccccc2)nc1COc1ccc(Cn2cc(CO)c(C(C)C)n2)cc1
The melting point of the first is higher: 104 to 106 °C for the first, 98 to 99 °C for the second.

First: COCCOc1ccnc(NCc2ccccc2)c1[N+](=O)[O-]
Second: COc1cc(CO)ccc1OCc1nc(-c2ccccc2)cn1C
The melting point of the first is lower: 81 to 83 °C for the first, 126 to 127 °C for the second.

Compared with `Oc1ccc(OCC(O)CNCCNc2cccc3[nH]ncc23)cc1` (centres undefined), `OCc1cc2cc(OCc3ccccc3)ccc2[nH]1` is lower in melting point: 151 to 153 °C for the first, 106 to 107 °C for the second.

First: COc1cc(-c2ccc3n[nH]c(=O)n3n2)cc(OC)c1OC
Second: COc1cc(Cc2cnc(N)nc2N)cc(-c2ccc(C=O)cc2)c1OC
The melting point of the first is higher: 289 to 290 °C for the first, 99 °C for the second.

Compared with `O=C1Nc2c(C(F)(F)F)cccc2C12COc1cc3c(cc12)OCO3` (centres undefined), `CC(C)N1C(=O)NC(c2ccc3ocnc3c2)c2cc3c(cc21)OCO3` (centres undefined) is lower in melting point: 245 to 248 °C for the first, 84 to 86 °C for the second.

First: C=CCc1cc(Nc2ccn(-c3ccccc3)n2)cc(CC=C)c1O
Second: O=C(O)c1ccc(/C=C/c2cnc3ccccc3c2)cc1
The melting point of the first is lower: 87 to 88 °C for the first, 287 to 290 °C for the second.

Compared with `O=C(O)c1ccccc1-c1cc(-c2ccc(Cl)cc2)on1`, `CC(=O)c1ccc2c(c1)Sc1ccccc1C=C2` is lower in melting point: 174 to 176 °C for the first, 82 to 84 °C for the second.

First: CCOC(=O)Cc1c(C)n(Cc2ccc(C(C)(C)C)cc2)c2ccc(OCc3csc(-c4ccccc4)n3)cc12
Second: COC(=O)c1ccc(C(C)(O)c2cc3cc(C(F)(F)F)ccc3n2S(=O)(=O)c2cccc(C(C)(C)C)c2)cc1 (centres undefined)
The melting point of the first is higher: 119 to 120 °C for the first, 70 °C for the second.

First: CC(C)c1cccc(C(C)C)c1NC(=O)CNC(c1ccccc1)c1cccc(C(=O)O)c1 (centres undefined)
Second: CC(C)C(OC(=O)NC(C)(Cc1ccccc1)C(=O)NC(C)(C)c1ccccc1)c1ccccc1 (centres undefined)
The melting point of the first is higher: 190 to 191 °C for the first, 115 to 123 °C for the second.

First: CN1CCC(=O)C(C2c3ccccc3Oc3ccccc32)C1 (centres undefined)
Second: O=C(O)C1c2cc(Br)ccc2COc2ccccc21 (centres undefined)
The melting point of the first is lower: 160 to 162 °C for the first, 187 to 189 °C for the second.

`Cc1ccc(C)n1-c1cc(Br)c2ccc3[nH]c(=O)c(=O)[nH]c3c2c1` and `O=Cc1ccn(-c2cc3[nH]c(=O)c(=O)[nH]c3cc2[N+](=O)[O-])c1` cannot be ordered by melting point: greater than 270 °C for the first, greater than 250 °C for the second.

First: CCOC(=O)CCCNc1ccc(OCC(C)(C)C)c(C#N)c1
Second: CC(C)Oc1ccc(NC(=O)C2(C)CC2)cc1C(F)(F)F
The melting point of the first is lower: 88 °C for the first, 106 to 109 °C for the second.

First: Cn1cc(-c2cccc(S(=O)(=O)n3ccc(/C=C/C(=O)NO)c3)c2)cn1
Second: Cn1cnc(S(=O)(=O)n2c(CCCC(=O)O)cc3cc(Cl)ccc32)c1
The melting point of the first is lower: 155 to 160 °C for the first, 222 to 225 °C for the second.

First: CCCCOCCOc1ccc(-c2ccc3c(c2)C=C(C(=O)Nc2ccc(N(C)Cc4nncn4CCC)cc2)CCN3CCC)cc1
Second: COc1ccc(-c2nnc3c4ccccc4c(Nc4cccc(C(=O)Nc5ccc(N(C)C)cc5)c4)nn23)cc1
The melting point of the first is lower: 131 to 133 °C for the first, 314 to 318 °C for the second.

First: CON=C(C(=O)OC)c1ccccc1C#CC(=O)c1ccccc1
Second: COc1ccc(C=C(NC(=O)c2ccccc2)C(=O)O)cc1OC
The melting point of the first is lower: 89 to 94 °C for the first, 196 to 198 °C for the second.

First: Brc1coc(-c2cn([C@H]3CN4CCC3CC4)nn2)c1
Second: O=S1(=O)NCN(C2CCCCC2)c2ccc(Cl)cc21
The melting point of the first is lower: 129 °C for the first, 233 to 235 °C for the second.

First: CC(C)CC(=O)Nc1cccc(-c2ccnc3c(-c4cccc(CN5CCN(C)CC5)c4)cnn23)c1
Second: Cc1nc(-c2ccccc2)nc(OCC(=O)Nc2ccccc2)c1C
The melting point of the first is lower: 135 to 138 °C for the first, 212 to 213 °C for the second.

Compared with `Cc1ccc(C(=O)c2c(C)c(C(=O)O)c(CC(=O)O)n2C)cc1`, `CCN(c1ccc(SC)cc1C#N)S(=O)(=O)c1ccc(C)cc1` is lower in melting point: 229 to 230 °C for the first, 136 to 137 °C for the second.

Compared with `CNC(=O)NC1CCCc2sccc21` (centres undefined), `Nc1ccccc1C1CCCN(C(=O)C(F)(F)F)C1` (centres undefined) is lower in melting point: 183 to 186 °C for the first, 138 °C for the second.

First: Cc1cccc(-n2c(CF)nc3ccc(N)cc3c2=O)c1C
Second: CC(C)Cc1nc2ccc(C#N)cc2c(-c2ccccc2)c1CN
The melting point of the first is higher: 189 to 192 °C for the first, 128 to 130 °C for the second.

First: C=CCc1cc(C=C2N=C(C)OC2=O)ccc1OC(C)=O
Second: CCOc1ccc2c(c1)CC(=O)c1cc(C(C)C(N)=O)ccc1S2 (centres undefined)
The melting point of the first is lower: 108 to 109 °C for the first, 128 to 130 °C for the second.

First: CC1CC(C)OP(=O)(Cc2ccc(N)cc2)O1 (centres undefined)
Second: COC(=O)C1=C(C)NC(C)=C(P2(=O)OC(C)CC(C)O2)C1c1cccc([N+](=O)[O-])c1 (centres undefined)
The melting point of the first is lower: 160 to 161 °C for the first, 225 to 226 °C for the second.

First: O=C1CCc2cc(NCC(=O)N3CCC(Cc4ccccc4)CC3)ccc2N1
Second: N#Cc1ccc(Cn2cncc2CCNC(=O)[C@H]2CN(Cc3ccccc3)CCN2C(=O)CC2CCN(C(N)=O)CC2)cc1
The melting point of the first is higher: 184 to 187 °C for the first, 118 °C for the second.

First: CCOC(=O)c1cn(CCCl)c2nc(N3CCN(C(C)=O)CC3)ncc2c1=O
Second: C#CCN(Cc1cc2c(=O)n(CCN(C)C)c(CN3CCCCC3)nc2cc1Cl)c1ccc(C(=O)OC(C)(C)C)cc1
The melting point of the first is higher: 205 to 206 °C for the first, 75 to 77 °C for the second.

First: CCCCC1(CCCC)CS(=O)(=O)c2ccc(N(C)C)cc2C(c2ccc(OCC(=O)NCC(=O)O)cc2)C1O (centres undefined)
Second: CCCC[C@H](NC(=O)[C@H](CC(C)C)NC(=O)COc1ccc(Cl)cc1)C(=O)CSCc1ccco1
The melting point of the first is higher: 149 to 150 °C for the first, 66 to 67 °C for the second.

First: CC(C)(C)OC(=O)N[C@H](CNC(=O)Nc1ccccc1)Cc1ccccc1
Second: COc1ncc(CNc2ccccc2C(=O)Nc2cccc(C(F)(F)F)c2)cc1Br
The melting point of the first is higher: 154 °C for the first, 110 to 111 °C for the second.

Compared with `CCC1(CC)CC(O)CC(C)(C)N1OC(C)c1ccccc1` (centres undefined), `Cc1ccc(N2CN(c3ccccc3)C3=NN=CC3=C2N)cc1` is higher in melting point: 84 to 86 °C for the first, 248 to 250 °C for the second.

First: CCc1noc2c(Cl)c3c(cc12)CC(C(=O)O)O3 (centres undefined)
Second: CC(=O)NC[C@H]1CN(c2ccc3c(c2)CC[C@@H](C)N3C=O)C(=O)O1
The melting point of the first is higher: 213 to 215 °C for the first, 89 to 91 °C for the second.

Compared with `C[C@]1(CN2CCN(c3ccc(Cl)cc3)CC2)Cn2cc([N+](=O)[O-])nc2O1`, `N#Cc1cc(F)c(N2CCN(Cc3cnc4c(c3)NC(=O)[C@@H]3CCCN43)CC2)cc1F` is higher in melting point: 218 to 220 °C for the first, 224 to 227 °C for the second.

First: Nc1nnc2c3c(c(N4CCOCC4)nn12)CCCC3
Second: Nc1ccc(S(=O)(=O)N2CCN(c3ccccn3)CC2)cc1
The melting point of the first is higher: 260 to 262 °C for the first, 208 to 210 °C for the second.

First: CC1C(=O)N(c2ccccc2)C(=S)N1c1ccc(Oc2ccc(O)cc2)cc1 (centres undefined)
Second: COc1ccc(Oc2ccc(C(=O)C(=O)c3ccc(Oc4ccc(OC)cc4)cc3)cc2)cc1
The melting point of the first is lower: 106 to 108 °C for the first, 121 to 122 °C for the second.

First: COc1ccc(CSc2cccnc2C(=O)O)cc1
Second: COc1ccc(CC(=O)Nc2c(-c3cc(Cl)ccc3O)c3cc(C(F)(F)F)ccc3[nH]c2=O)cc1
The melting point of the first is lower: 170 to 172 °C for the first, 172 to 175 °C for the second.

First: CC(=O)COc1ccc2ccc(Oc3c(Cl)cc(C(F)(F)F)cc3Cl)cc2c1
Second: O=C(Nc1ccc(-n2nc(C(F)(F)F)cc2-c2cccs2)cc1)c1ccncc1F
The melting point of the first is lower: 132 °C for the first, 153 to 155 °C for the second.

First: Oc1cccc(COC=C2C3CC4CC(C3)CC2C4)c1
Second: Cc1cccc(NC(=O)NC2N=C(C3CC3)c3cccc(C)c3N(CC(=O)N3CC4CCC(CC4)C3)C2=O)c1 (centres undefined)
The melting point of the first is lower: 133 to 134 °C for the first, 172 to 174 °C for the second.

First: CN(C(=O)c1cccs1)c1cccc2cc(-c3nccs3)[nH]c12
Second: COCn1c(-c2ncc(CO)s2)cc2cccc(N(C)S(=O)(=O)c3cccs3)c21
The melting point of the first is higher: 250 °C for the first, 156 to 157 °C for the second.

First: CS(=O)(=O)c1ccc(-c2cc(C(F)(F)F)nn2C2CCCCC2)cc1F
Second: COc1cc(-c2nnc3n2CCC[C@]3(Oc2cc(F)c(F)c(F)c2)C(C)(C)O)ccc1-c1cnc(C)o1
The melting point of the first is higher: 228 to 229 °C for the first, 188 °C for the second.

`Cc1nc2nccc(O)c2cc1Br` and `CC(C)(C(N)=O)c1ccc2nc(-c3ccncc3)[nH]c2c1` cannot be ordered by melting point: greater than 250 °C for the first, 274 to 276 °C for the second.

First: Cc1cc(-c2ccc(C#N)cc2)c(C)n1Cc1cnc(Cl)c(CO)c1
Second: COc1cc2c(cc1OC)-c1ncc(C#N)c(=O)n1CC2
The melting point of the first is lower: 128 to 129 °C for the first, 261 to 262 °C for the second.

First: Cc1ccc(-c2csc(/C=C/C(=O)Nc3ccc(CN(C)C4CCOCC4)cc3)c2)cc1
Second: COc1ccc(C2CCN(C(=O)/C=C/c3ccccc3)CC2)cc1OC1CCCC1
The melting point of the first is higher: 188 to 190 °C for the first, 93 to 95 °C for the second.

Compared with `CCCCS(=O)(=O)NC(CNS(=O)(=O)c1cccc(C(=O)C2CCC3(CCNCC3)CC2)c1)C(=O)O` (centres undefined), `O=C(O)C1CCCC(C(=O)O)C1` (centres undefined) is lower in melting point: 225 to 235 °C for the first, 163 to 165 °C for the second.

First: NC(=O)CCCSc1cccc(Br)n1
Second: C=CCNC1=NS(=O)(=O)c2cnccc2N1
The melting point of the first is lower: 87 to 88 °C for the first, 206 to 208 °C for the second.

`Fc1cc(F)c(F)c(-c2c(Cl)nc3ncnn3c2Cl)c1` and `CC(C)Cc1ccc(CCc2cc3c(s2)NC(=S)C(C)N=C3c2ccccc2Cl)cc1` (centres undefined) cannot be ordered by melting point: 191 °C for the first, 188 to 191 °C for the second.

First: c1ccc(C2CNc3ccccc3O2)cc1 (centres undefined)
Second: CC(C)(S)[C@@H]1C[C@H](CS)C(=O)N1 (relative stereo)
The melting point of the first is lower: 113 to 116 °C for the first, 159 to 161 °C for the second.

In the case of `BrC(Br)c1nc(C(Br)Br)nc(C(Br)Br)n1`, the melting point is reported as 130 to 131 °C.

Source: a melting point compilation (Tetko et al.; mined from patent text by program, amines drawn as free bases though some values may be those of a salt)
